Target: Beta-3 Adrenergic Receptor (Homo sapiens (Human), UniProt P13945)
Experiment: Homogeneous Time-Resolved Fluorescence (HTRF) cAMP antagonist assay, IC50 determination
Format: cell-based
Details: CHO-K1 cells stably expressing recombinant receptor, isoproterenol at EC90
Experimental: HTRF cAMP assays were performed according to manufacturer's instructions (Cisbio, cAMP Dynamic 2 Assay Kit; #62AM4PEJ). CHO-K1 cells stably expressing recombinant receptor were harvested and suspended in warm PBS to make a 300,000 cells/mL stock. This cell suspension was dispensed into 384 well assay plates (PerkinElmer ProxiPlate #6008280) at 5 μL per well (1500 cells/well) along with a cAMP standard curve.
Compounds were dissolved and serially diluted (5-fold) in DMSO to generate a 10-point dose response stock. The stock was then diluted 100-fold in assay buffer (PBS containing 1 mM IBMX) before a volume of 2.5 μL was added to the cells (the final, top concentration of compound in the dose-response is typically 10 or 100 μM). After a brief incubation, 2.5 μL of isoproterenol stock, prepared at a concentration 4 times its EC90 at the receptor of interest, was added to the wells. The EC90 for isoproterenol, a beta-adrenergic agonist, was determined in separate experiments using standard methods to measure agonist potencies.
Following a 1-hour incubation at room temperature, 5 μL of cAMP-D2 Reagent diluted in Lysis Buffer was added to each well followed by 5 μL of Cryptate Reagent. Plates were further incubated at room temperature for 1 hour prior to reading. Time resolved fluorescence measurements were collected on a suitable, HTRF-capable plate reader.
Counts from the plate reader were fit to the cAMP standard curve on the assay plate in order to determine cAMP concentrations in each well, and these values were used to construct dose-response curves to obtain IC50 values.

Sequence of Beta-3 Adrenergic Receptor (P13945 whole entry, species assumed): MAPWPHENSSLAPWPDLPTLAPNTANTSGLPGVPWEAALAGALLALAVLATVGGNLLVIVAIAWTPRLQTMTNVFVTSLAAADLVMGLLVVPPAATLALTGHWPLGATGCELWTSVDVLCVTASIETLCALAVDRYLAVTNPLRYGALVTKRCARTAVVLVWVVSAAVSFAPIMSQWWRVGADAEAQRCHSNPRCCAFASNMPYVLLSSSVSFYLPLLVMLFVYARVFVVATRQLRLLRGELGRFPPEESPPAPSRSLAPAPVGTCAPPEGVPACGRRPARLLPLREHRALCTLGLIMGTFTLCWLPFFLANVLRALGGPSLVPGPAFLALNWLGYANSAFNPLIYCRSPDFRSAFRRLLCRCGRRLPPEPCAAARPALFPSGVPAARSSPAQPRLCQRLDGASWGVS

| Compound | IC50 [nM] |
| --- | --- |
| CNS(=O)(=O)c1cccc(OC[C@@H](O)CNC2COC3(CCN(S(=O)(=O)c4cccc(-c5ccc(C(=N)N)cc5)c4)CC3)C2)c1 (stereo partly drawn) [Compound 383, 3′-(3-((S)-2-hydroxy-3-(3-(N-methylsulfamoyl)phenoxy)propylamino)-1-oxa-8-azaspiro[4.5]decan-8-ylsulfonyl)biphenyl-4-carboximidamide] | 21.8 |
| NS(=O)(=O)c1cccc(OC[C@@H](O)CN[C@H]2COC3(CCN(S(=O)(=O)c4ccc5ccccc5c4)CC3)C2)c1 [Compound 560, 3-((S)-2-hydroxy-3-((R)-8-(naphthalen-2-ylsulfonyl)-1-oxa-8-azaspiro[4.5]decan-3-ylamino)propoxy)benzenesulfonamide] | 19.2 |
| O=S(=O)(NCC(F)(F)F)c1cccc(OC[C@@H](O)CNC2COC3(CCN(S(=O)(=O)c4ccc5ccccc5c4)CC3)C2)c1 (stereo partly drawn) [Compound 5, 3-((2S)-2-hydroxy-3-(8-(naphthalen-2-ylsulfonyl)-1-oxa-8-azaspiro[4.5]decan-3-ylamino)propoxy)-N-(2,2,2-trifluoroethyl)benzenesulfonamide] | 220 |
| CNS(=O)(=O)c1cccc(OC[C@@H](O)CNC2COC3(CCN(S(=O)(=O)c4cc(S(=O)(=O)c5ccccc5)cs4)CC3)C2)c1 (stereo partly drawn) [Compound 190, 3-((2S)-2-hydroxy-3-(8-(4-(phenylsulfonyl)thiophen-2-ylsulfonyl)-1-oxa-8-azaspiro[4.5]decan-3-ylamino)propoxy)-N-methylbenzenesulfonamide] | 18 |
| CN(C1CC1)S(=O)(=O)c1cccc(OC[C@@H](O)CNC2COC3(CCN(S(=O)(=O)c4ccc5ccccc5c4)CC3)C2)c1 (stereo partly drawn) [Compound 90, N-cyclopropyl-3-((2S)-2-hydroxy-3-(8-(naphthalen-2-ylsulfonyl)-1-oxa-8-azaspiro[4.5]decan-3-ylamino)propoxy)-N-methylbenzenesulfonamide] | 49.2 |
| CN(C)S(=O)(=O)c1cccc(OC[C@@H](O)CNC2COC3(CCN(S(=O)(=O)c4cccc(-c5ccc(N)nc5)c4)CC3)C2)c1 (stereo partly drawn) [Compound 275, 3-((2S)-3-(8-(3-(6-aminopyridin-3-yl)phenylsulfonyl)-1-oxa-8-azaspiro[4.5]decan-3-ylamino)-2-hydroxypropoxy)-N,N-dimethylbenzenesulfonamide] | 21.3 |
| CCOCCNS(=O)(=O)c1cccc(OC[C@@H](O)CNC2COC3(CCN(S(=O)(=O)c4ccc5ccccc5c4)CC3)C2)c1 (stereo partly drawn) [Compound 47, N-(2-ethoxyethyl)-3-((2S)-2-hydroxy-3-(8-(naphthalen-2-ylsulfonyl)-1-oxa-8-azaspiro[4.5]decan-3-ylamino)propoxy)benzenesulfonamide] | 155 |
| Cc1c(S(=O)(=O)N2CCC3(CC2)CC(NC[C@H](O)COc2cccc(S(=O)(=O)NCCCN(C)C)c2)CO3)cnn1-c1ccccc1 (stereo partly drawn) [Compound 313, N-(3-(dimethylamino)propyl)-3-((2S)-2-hydroxy-3-(8-(5-methyl-1-phenyl-1H-pyrazol-4-ylsulfonyl)-1-oxa-8-azaspiro[4.5]decan-3-ylamino)propoxy)benzenesulfonamide] | 4010 |
| COCCCNS(=O)(=O)c1cccc(OC[C@@H](O)CNC2COC3(CCN(S(=O)(=O)c4ccc5ccccc5c4)CC3)C2)c1 (stereo partly drawn) [Compound 75, 3-((2S)-2-hydroxy-3-(8-(naphthalen-2-ylsulfonyl)-1-oxa-8-azaspiro[4.5]decan-3-ylamino)propoxy)-N-(3-methoxypropyl)benzenesulfonamide] | 39.8 |
| Cc1n[nH]c2ncc(S(=O)(=O)N3CCC4(CC3)C[C@@H](NC[C@H](O)COc3cccc(S(N)(=O)=O)c3)CO4)cc12 [Compound 564, 3-((S)-2-hydroxy-3-((R)-8-(3-methyl-1H-pyrazolo[3,4-b]pyridin-5-ylsulfonyl)-1-oxa-8-azaspiro[4.5]decan-3-ylamino)propoxy)benzenesulfonamide] | 27 |
| CNS(=O)(=O)c1cccc(OC[C@@H](O)CNC2COC3(CCN(S(=O)(=O)c4cccc(-c5cnn(CC6CC6)c5)c4)CC3)C2)c1 (stereo partly drawn) [Compound 82, 3-((2S)-3-(8-(3-(1-(cyclopropylmethyl)-1H-pyrazol-4-yl)phenylsulfonyl)-1-oxa-8-azaspiro[4.5]decan-3-ylamino)-2-hydroxypropoxy)-N-methylbenzenesulfonamide] | 15.9 |
| CNS(=O)(=O)c1cccc(OC[C@@H](O)CN[C@H]2COC3(CCN(S(=O)(=O)c4cc5c(nc4OC)OCCN5C)CC3)C2)c1 [Compound 476, 3-((S)-2-hydroxy-3-((R)-8-(6-methoxy-1-methyl-2,3-dihydro-1H-pyrido[2,3-b][1,4]oxazin-7-ylsulfonyl)-1-oxa-8-azaspiro[4.5]decan-3-ylamino)propoxy)-N-methylbenzenesulfonamide] | 38.9 |
| CNS(=O)(=O)c1cccc(OC[C@@H](O)CN[C@H]2COC3(CCN(c4ncc(C(=O)OC)cn4)CC3)C2)c1 [Compound 581, methyl 2-((R)-3-((S)-2-hydroxy-3-(3-(N-methylsulfamoyl)phenoxy)propylamino)-1-oxa-8-azaspiro[4.5]decan-8-yl)pyrimidine-5-carboxylate] | 788 |
| CNS(=O)(=O)c1cccc(OC[C@@H](O)CN[C@@H]2COC3(CCN(S(=O)(=O)c4cccc(-c5ccc(CNCCC(C)C)cc5)c4)CC3)C2)c1 [Compound 361, 3-((S)-2-hydroxy-3-((S)-8-(4′-((isopentylamino)methyl)biphenyl-3-ylsulfonyl)-1-oxa-8-azaspiro[4.5]decan-3-ylamino)propoxy)-N-methylbenzenesulfonamide] | 22.1 |
| CNS(=O)(=O)c1cccc(OC[C@@H](O)CN[C@H]2COC3(CCN(S(=O)(=O)c4cccc(-c5ccc(OCC#N)cc5)c4)CC3)C2)c1 [Compound 298, 3-((S)-3-((R)-8-(4′-(cyanomethoxy)biphenyl-3-ylsulfonyl)-1-oxa-8-azaspiro[4.5]decan-3-ylamino)-2-hydroxypropoxy)-N-methylbenzenesulfonamide] | 26 |

Results, then the compound that gave them:

| IC50 [nM] | Compound |
| --- | --- |
| 24.3 | CNS(=O)(=O)c1cccc(OC[C@@H](O)CNC2COC3(CCN(S(=O)(=O)c4ccc(Cl)s4)CC3)C2)c1 (stereo partly drawn) [Compound 181, 3-((2S)-3-(8-(5-chlorothiophen-2-ylsulfonyl)-1-oxa-8-azaspiro[4.5]decan-3-ylamino)-2-hydroxypropoxy)-N-methylbenzenesulfonamide] |
| 20.8 | CNS(=O)(=O)c1cccc(OC[C@@H](O)CNC2COC3(CCN(S(=O)(=O)c4cc(Cl)c(Cl)s4)CC3)C2)c1 (stereo partly drawn) [Compound 178, 3-((2S)-3-(8-(4,5-dichlorothiophen-2-ylsulfonyl)-1-oxa-8-azaspiro[4.5]decan-3-ylamino)-2-hydroxypropoxy)-N-methylbenzenesulfonamide] |
| 213 | CNS(=O)(=O)c1cccc(OC[C@@H](O)CNC2COC3(CCN(S(=O)(=O)c4cccc(-c5cn(C)c(=O)n(C)c5=O)c4)CC3)C2)c1 (stereo partly drawn) [Compound 113, 3-((2S)-3-(8-(3-(1,3-dimethyl-2,4-dioxo-1,2,3,4-tetrahydropyrimidin-5-yl)phenylsulfonyl)-1-oxa-8-azaspiro[4.5]decan-3-ylamino)-2-hydroxypropoxy)-N-methylbenzenesulfonamide] |
| 13.5 | CNS(=O)(=O)c1cccc(OC[C@@H](O)CNC2COC3(CCN(S(=O)(=O)c4cc(C)ccc4F)CC3)C2)c1 (stereo partly drawn) [Compound 150, 3-((2S)-3-(8-(2-fluoro-5-methylphenylsulfonyl)-1-oxa-8-azaspiro[4.5]decan-3-ylamino)-2-hydroxypropoxy)-N-methylbenzenesulfonamide] |
| 4.89 | CNS(=O)(=O)c1cccc(OC[C@@H](O)CN[C@H]2COC3(CCN(S(=O)(=O)c4cnc5[nH]cc(Cl)c5c4)CC3)C2)c1 [Compound 510, 3-((S)-3-((R)-8-(3-chloro-1H-pyrrolo[2,3-b]pyridin-5-ylsulfonyl)-1-oxa-8-azaspiro[4.5]decan-3-ylamino)-2-hydroxypropoxy)-N-methylbenzenesulfonamide] |
| 37.3 | CNS(=O)(=O)c1cccc(OC[C@@H](O)CN[C@H]2COC3(CCN(S(=O)(=O)c4cnc5[nH]ncc5c4)CC3)C2)c1 [Compound 490, 3-((S)-3-((R)-8-(1H-pyrazolo[3,4-b]pyridin-5-ylsulfonyl)-1-oxa-8-azaspiro[4.5]decan-3-ylamino)-2-hydroxypropoxy)-N-methylbenzenesulfonamide] |
| 78 | CNS(=O)(=O)c1cccc(OC[C@@H](O)CNC2COC3(CCN(S(=O)(=O)c4cccnc4)CC3)C2)c1 (stereo partly drawn) [Compound 324, 3-((2S)-2-hydroxy-3-(8-(pyridin-3-ylsulfonyl)-1-oxa-8-azaspiro[4.5]decan-3-ylamino)propoxy)-N-methylbenzenesulfonamide] |
| 43 | CNS(=O)(=O)c1cccc(OC[C@@H](O)CNC2COC3(CCN(S(=O)(=O)c4ccc5[nH]c(=O)sc5c4)CC3)C2)c1 (stereo partly drawn) [Compound 58, 3-((2S)-2-hydroxy-3-(8-(2-oxo-2,3-dihydrobenzo[d]thiazol-6-ylsulfonyl)-1-oxa-8-azaspiro[4.5]decan-3-ylamino)propoxy)-N-methylbenzenesulfonamide] |
| 124 | CNS(=O)(=O)c1cccc(OC[C@@H](O)CN[C@H]2COC3(CCN(S(=O)(=O)c4c[nH]c5cccnc45)CC3)C2)c1 [Compound 529, 3-((S)-3-((R)-8-(1H-pyrrolo[3,2-b]pyridin-3-ylsulfonyl)-1-oxa-8-azaspiro[4.5]decan-3-ylamino)-2-hydroxypropoxy)-N-methylbenzenesulfonamide] |
